In article PMC2731040 (BMC Clinical Pharmacology, 2009):

How the values were obtained:
[1] = Plasma pharmacokinetics of cocaine and benzoylecgonine after IV cocaine-d5 infusion; details: plasma, mean ± SD; for half-life / AUC(0-t) / AUC(0-inf) / clearance / Tmax / Vd / Cmax / k el: human, in vivo; for half-life: (t1/2)z; for clearance: CL; for Vd: Vz; for Cmax: iv, cocaine-d5 IV 0.5 mg/kg over 10 min then 2 mg/kg over 4 h; for k el: λz
Procedure: In this open-label, unblinded study, a 0.5 mg/kg intravenous loading dose of cocaine-d5 HCl over 10 minutes was followed by a slow 4 hour constant rate cocaine-d5 infusion of 2.0 mg/kg(~175 mg for a 70 kg person). […] When this method of cocaine administration is utilized, a larger dose can be given over a longer period of time and approximates frequently reported patterns of cocaine use. This method also allowed for close monitoring and termination of the infusion if untoward psychiatric or cardiovascular effects occurred.
For both cocaine infusions (sessions 1 and 2), plasma samples for cocaine and metabolites (~6 ml) were obtained 5 minutes before and 10 minutes, 0.5, 1, 1.5, 2, 4, 4.25, 4.5, 5, 6, 8, 12, 21, 27, 33, and 45 hours after each cocaine infusion.
Plasma concentrations of cocaine and benzoylecgonine were measured in our laboratory using a method we developed. The method allows for simultaneous determination of cocaine, benzoylecgonine, and deuterium-labeled analogs [cocaine-d5 and benzoylecgonine-d5 (BE-d5)] by using combined gas chromatography-mass spectrometry (GC-MS). Differently labeled stable isotope analogs were used as internal standards. The calibration curves were from 5 to 2,000 ng/mL for cocaine-d5 and 10 to 2,000 ng/mL for BE-d5. Lower limits of quantitation (LLOQ) were 5 ng/ml (cocaine-d5) and 10 ng/ml (BE-d5) in plasma. Qualitative urine benzoylecgonine was measured by Northwest Toxicology Laboratory, Salt Lake City, Utah, using the Roche Diagnostics Online® immunoassay.
The plasma concentration-time profiles for cocaine and benzoylecgonine (BE) were analyzed by non-compartmental methods, utilizing the pharmacokinetic data analysis program WinNonlin Pro, version 3.0 [31].
The area under the plasma concentration-time curve was calculated using the linear trapezoidal rule up to the maximum plasma concentration, and thereafter using the logarithmic trapezoidal rule to the last measurable plasma concentration. The remaining area was extrapolated to infinity by dividing the last appropriate plasma concentration by the terminal exponential rate constant.
Maximum plasma concentration (Cmax) and time of maximum plasma concentration (Tmax) were determined by visual inspection of data. "Terminal" exponential half-life [(t1/2)z] was calculated from log-linear regression of "terminal" exponential phase data points. Cocaine clearance (CL) and terminal exponential volume of distribution (Vz) were calculated by conventional equations: CL = [Dose/Area under the curve (AUC)0-∞] and Vz = CL/λz, respectively, where λz ("terminal" exponential rate constant) = ln2/(t1/2)z. […] Amount of BE in urine samples was calculated by multiplying concentration by volume.

MAO-B = biological target: T1, MAO-B (Homo sapiens, UniProt P27338); format: in vivo; details: Day 3–4 After Cocaine Preselegiline
T1 construct: Twelve nondependent cocaine-experienced subjects received deuterium-labeled cocaine-d5 intravenously; from tissue; host or cells: whole body of living human subjects (in vivo); 24-hour urine analysed for PEA
T1 sequence (P27338 1-520): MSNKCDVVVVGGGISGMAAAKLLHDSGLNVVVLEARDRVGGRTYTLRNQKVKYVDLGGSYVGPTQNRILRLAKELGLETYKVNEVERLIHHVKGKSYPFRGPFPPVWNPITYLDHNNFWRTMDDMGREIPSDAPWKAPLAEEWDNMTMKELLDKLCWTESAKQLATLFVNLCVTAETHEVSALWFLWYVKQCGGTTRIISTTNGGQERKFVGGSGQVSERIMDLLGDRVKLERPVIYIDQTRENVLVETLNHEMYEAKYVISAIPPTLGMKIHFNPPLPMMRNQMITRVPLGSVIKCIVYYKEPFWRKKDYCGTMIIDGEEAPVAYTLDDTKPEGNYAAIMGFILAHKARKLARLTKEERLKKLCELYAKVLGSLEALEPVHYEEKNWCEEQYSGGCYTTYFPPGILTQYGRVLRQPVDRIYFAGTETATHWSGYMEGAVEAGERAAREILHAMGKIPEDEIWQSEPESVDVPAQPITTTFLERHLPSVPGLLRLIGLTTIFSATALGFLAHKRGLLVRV
Text: (§1) The interactions between MAO-A inhibitors and cocaine administered are largely unexplored. […] Therefore, measurement of dopaminergic and noradrenergic tone may be important in predicting toxic events. We measured dopaminergic tone with the surrogate marker of plasma HVA, the major brain metabolite of dopamine, and serum levels of prolactin, a hormone whose secretion is inhibited by dopamine. The surrogate for noradrenergic tone was urine concentrations of MHPG-S. In order to assess the degree of MAO-A and MAO-B inhibition, we assayed concentrations of a substrate of MAO-B, phenylethylamine (PEA). PEA would be expected to increase with MAO-B inhibition, and concentrations of MHPG-S, which is a metabolite of norepinephrine produced by MAO-A primarily in the brain [20], would be expected to decrease.
(§2) When subjects were in the GCRC, all urine was collected and volumes recorded. Following each cocaine infusion, urine was collected in fractions from 0 to 24, 24 to 48, and 48 to 72 hours (timed from the start of the infusion). Samples were then frozen at -70°C until analyzed. […] A qualitative screen for drugs of abuse was obtained every other day for the entire study period.

noradrenergic tone = assay: Urinary MHPG-S excretion (surrogate for noradrenergic tone, MAO-A metabolite); format: in vivo, human
Text: as §1, §2
Concentrations of MHPG-S in urine were determined using LC-MS/MS [29]. […] As urinary creatinine excretion is directly related to glomerular filtration and renal blood flow, and urinary creatinine excretion is relatively constant (~1 gm/day), it can be used to estimate concentrations of a substance during a 24 hour urine collection period. Using ratios of the concentrations of MHPG-S to creatinine obtained from assays of these spot urine samples, MGPG-S concentrations during the outpatient period (when subjects would be unlikely to provide accurate 24 hour urine collections) were compared to those from urine samples on inpatient days.

dopaminergic tone = assay: Serum prolactin and plasma HVA (surrogate markers of dopaminergic tone); format: in vivo, human; details: both challenge sessions; change within each session not significant
Text: as §1

[2] = humans; cited from earlier work

COC(=O)[C@H]1[C@@H](OC(=O)c2ccccc2)C[C@@H]2CC[C@H]1N2C [Cocaine, cocaine]
AUCext ([1]; Pre Selegiline (session 1)): 1.40 ± 1.03%
AUCext ([1]; With Selegiline (session 2)): 1.78 ± 1.87%
half-life ([1]; Pre Selegiline (session 1)): 1.71 ± 0.81 h
half-life ([1]; With Selegiline (session 2)): 1.57 ± 0.3 h
AUC(0-t) ([1]; Pre Selegiline (session 1)): 2640 ± 55.6 ng·h/mL
AUC(0-t) ([1]; With Selegiline (session 2)): 2360 ± 499 ng·h/mL
AUC(0-inf) ([1]; Pre Selegiline (session 1)): 2680 ± 1470 ng·h/mL
AUC(0-inf) ([1]; With Selegiline (session 2)): 2400 ± 487 ng·h/mL
clearance ([1]; Pre Selegiline (session 1)): 18.3 ± 6.17 mL/min/kg
clearance ([1]; With Selegiline (session 2)): 18 ± 3.34 mL/min/kg
Tmax ([1]; Pre Selegiline (session 1)): 2.66 ± 1.74 h
Tmax ([1]; With Selegiline (session 2)): 2.27 ± 2.04 h
Vd ([1]; Pre Selegiline (session 1)): 2.49 ± 0.88 L/kg
Vd ([1]; With Selegiline (session 2)): 2.44 ± 0.64 L/kg
Cmax ([1]; Pre Selegiline (session 1)): 721 ± 773 ng/mL
Cmax ([1]; With Selegiline (session 2, after one week STS 6 mg/24 hours)): 640 ± 332 ng/mL
k el ([1]; Pre Selegiline (session 1)): 0.000126 s⁻¹
k el ([1]; With Selegiline (session 2)): 0.000127 s⁻¹
Total Amount of PEA Excreted in the 24 Hour Urine Collection (MAO-B): 0.003 ± 0.004 mg
Total Amount of MHPG-S Excreted in the 24 Hour Urine Collection (noradrenergic tone; Day 3–4 After Cocaine Preselegiline): 1.44 ± 0.43 mg
Urine MHPG-S/creatinine concentration ratios vs the day before cocaine challenge (noradrenergic tone; second day after the first cocaine challenge, p < 0.05): increased significantly
Serum prolactin levels after cocaine, change within session (dopaminergic tone): numerically decreased
half life of acute pharmacokinetic and dynamic effects [2]: about 1 hour
